# Results from publication PMC9532951, “Identification and characterization of a novel SNAT2 (SLC38A2) inhibitor reveals synergy with glucose transport inhibition in cancer cells” (Frontiers in Pharmacology, 2022).
# Several values for one entry are separate records, joined by “and”; a condition that tells them apart may be missing. Identical values can stand only once. Like-named read-outs stand apart in the source and are kept apart here.
# Assays:
# HPAFII cells = experiment: Growth assay (IncuCyte confluence), HPAFII; assay type: cell-based, human; design: key to Growth (Figure 6A) / cell confluence (Figure 6F): % confluence
# Method: (§1) Cells were seeded on 96-well flat bottom plates at approximately 3000 cells/well and incubated in growth medium (DMEM/F12 supplemented with 10% FBS, 2 mM glutamine) for 24 h. The next day, the growth medium was aspirated and exchanged with 300 μL/well of growth medium containing compounds at the indicated concentration. For live cell analysis, plates were placed in the IncuCyte system (Essen Bioscience), which was housed in a cell incubator (37°C, humidified atmosphere composed of 95% air and 5% CO2) and confluence measured at 6-h intervals or at the assay endpoint when untreated control cells reached a confluency >90%. Antibiotics (10 U/mL penicillin and 10 μg/ml streptomycin) were included in the treatment solutions.
# (§2) Growth curves were generated using the Gompertz function of OriginPro software: y=ae^−e^(−k(x−xc))
# (§3) Where a is the maximum confluence or upper asymptote, k is the growth rate coefficient, xc is the time point at which 50% confluence is reached (inflection point) and e is Euler’s number. Cell growth data are shown as % confluence.
# (§4) Synergism between drug combinations was quantified using ZIP synergy scoring as calculated by SynergyFinder ([Yadav et al., 2015]).
# MDA-MB-231 cells = experiment: Growth assay (IncuCyte confluence), MDA-MB-231; assay type: cell-based, human; design: key to Growth (Figure 6A) / cell confluence (Figure 6F): % confluence; details: for Growth (Figure 6A): MDA-MB-231
# Method: as §1, §2, §3, §4
smiles,measurement,setting,value
"Cc1ccc(S(=O)(=O)N(C)c2ccsc2C(=O)NCc2ccccc2C(F)(F)F)cc1 [Compound 57_E, 3-(N-methyl (4-methylphenyl)sulfonamido)-N-(2-trifluoromethylbenzyl)thiophene-2-carboxamide]",tolerated concentration,HPAFII cells,≤ 100 µM
same,Growth (Figure 6A),HPAFII cells; concentration 1,93.8 and 96.25 and 96.4
same,Growth (Figure 6A),HPAFII cells; concentration 3,93.35 and 98.85 and 97.6
same,Growth (Figure 6A),HPAFII cells; concentration 10,91.1 and 94.2 and 97.05
same,Growth (Figure 6A),HPAFII cells; concentration 30,73 and 75.75 and 89.85
same,Growth (Figure 6A),HPAFII cells; concentration 100,46.05 and 59.8 and 57.25
same,tolerated concentration,HPAFII cells; growth medium,up to 30 μM
same,tolerated concentration,"MDA-MB-231 cells; MDA-MB-231, growth medium",up to 30 μM
same,Growth (Figure 6A),MDA-MB-231 cells; concentration 1,82.35 and 90.35 and 97.85
same,Growth (Figure 6A),MDA-MB-231 cells; concentration 3,76.3 and 97.1 and 98.3
same,Growth (Figure 6A),MDA-MB-231 cells; concentration 10,70.5 and 94.85 and 92.9
same,Growth (Figure 6A),MDA-MB-231 cells; concentration 30,68.4 and 70.75 and 88.35
same,Growth (Figure 6A),MDA-MB-231 cells; concentration 100,57.95 and 91.15 and 66.7
